Test results from ChEMBL document CHEMBL1149059, “Biological activity of some coumarins from Sri Lankan Rutaceae” (J Nat Prod, 1994).
Converted amounts (≈) assume the structure as drawn.

How the values were obtained:
Saccharomyces cerevisiae [1] = experiment: DNA damaging activity against DNA repair-deficient yeast rad 52 assessed as drug level required to produce 12 mm zone of inhibition; format: functional
Saccharomyces cerevisiae [2] = experiment: DNA damaging activity against DNA repair-proficient yeast RAD+ assessed as drug level required to produce 12 mm zone of inhibition; format: functional
Saccharomyces cerevisiae [3] = experiment: DNA damaging activity against DNA repair-deficient yeast rad 6 assessed as drug level required to produce 12 mm zone of inhibition; format: functional
Vero = experiment: Cytotoxicity against african green monkey Vero cells after 7 days by XTT assay; format: cell-based; conditions: Chlorocebus sabaeus, 168 h
Saccharomyces cerevisiae [4] = experiment: DNA damaging activity against DNA repair-deficient yeast rad 52Y assessed as drug level required to produce 12 mm zone of inhibition; format: functional

SMILES	IC12 (Saccharomyces cerevisiae [1]) [µg/mL]	IC12 (Saccharomyces cerevisiae [2]) [µg/mL]	IC12 (Saccharomyces cerevisiae [3]) [µg/mL]	IC50 (Vero) [µg/mL]	IC12 (Saccharomyces cerevisiae [4]) [µg/mL]
CC[C@@]1(O)C(=O)OCc2c1cc1n(c2=O)Cc2cc3ccccc3nc2-1 [CAMPTOTHECIN]	0.6	110	8.7	0.02 (≈ 0.0574 µM)	–
CC1(C)C=Cc2c(ccc3ccc(=O)oc23)O1 [SESALIN]	33	220	480	12 (≈ 52.6 µM)	87
CC1(C)C=Cc2cc3ccc(=O)oc3cc2O1 [XANTHYLETIN]	52	21	318	> 20	87
